Results published in US8609686B2, “Substituted azabicyclic compounds and the use thereof” (Bayer Intellectual Property GmbH, priority 2007, dated 2013).

Legend:
Assay type in all cases: cell-based
adenosine A1 receptor = target: T1, adenosine A1 receptor (Homo sapiens, UniProt P30542); assay: Indirect determination of adenosine agonism by way of gene expression (cAMP-dependent luciferase reporter), A1 cells; details: stably transfected CHO cells; 1 μM forskolin; concentration at which 50% of the luciferase response is inhibited
T1 construct: expressed in transfected cells; host or cells: CHO (Chinese Hamster Ovary)
T1 sequence (P30542 1-326): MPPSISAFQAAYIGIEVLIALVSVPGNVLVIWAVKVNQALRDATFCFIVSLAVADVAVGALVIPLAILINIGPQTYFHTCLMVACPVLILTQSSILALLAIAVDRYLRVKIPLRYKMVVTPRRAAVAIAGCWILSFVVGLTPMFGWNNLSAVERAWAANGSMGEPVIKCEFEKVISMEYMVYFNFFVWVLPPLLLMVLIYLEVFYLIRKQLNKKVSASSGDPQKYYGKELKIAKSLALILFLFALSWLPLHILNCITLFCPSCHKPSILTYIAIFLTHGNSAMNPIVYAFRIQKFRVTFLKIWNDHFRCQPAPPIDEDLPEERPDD
Source text: (§1) B-1. Indirect determination of the adenosine agonism by way of gene expression Cells of the CHO (Chinese Hamster Ovary) permanent line are transfected stably with the cDNA for the adenosine receptor subtypes A1, A2a and A2b. The adenosine A1 receptors are coupled to the adenylate cyclase by way of Gi proteins, while the adenosine A2a and A2b receptors are coupled by way of Gs proteins. In correspondence with this, the formation of cAMP in the cell is inhibited or stimulated, respectively. After that, expression of the luciferase is modulated by way of a cAMP-dependent promoter. The luciferase test is optimized, with the aim of high sensitivity and reproducibility, low variance and good suitability for implementation on a robot system, by varying several test parameters, such as cell density, duration of the growth phase and the test incubation, forskolin concentration and medium composition. The following test protocol is used for pharmacologically characterizing cells and for the robot-assisted substance screening:
(§2) The stock cultures are grown, at 37° C. and under 5% CO2, in DMEM/F12 medium containing 10% FCS (fetal calf serum) and in each case split 1:10 after 2-3 days. Test cultures are seeded in 384-well plates with 2000 cells per well and grown at 37° C. for approx. 48 hours. The medium is then replaced with a physiological sodium chloride solution (130 mM sodium chloride, 5 mM potassium chloride, 2 mM calcium chloride, 20 mM HEPES, 1 mM magnesium chloride hexahydrate, 5 mM sodium bicarbonate, pH 7.4). The substances to be tested, which are dissolved in DMSO, are pipetted into the test cultures (maximum final concentration of DMSO in the test mixture: 0.5%) in a dilution series of from 5×10^−11M to 3×10^−6M (final concentration). 10 minutes later, forskolin is added to the A1 cells and all the cultures are subsequently incubated at 37° C. for four hours. After that, 35 μl of a solution which is composed of 50% lysis reagent (30 mM disodium hydrogenphosphate, 10% glycerol, 3% TritonX100, 25 mM TrisHCl, 2 mM dithiotreitol (DTT), pH 7.8) and 50% luciferase substrate solution (2.5 mM ATP, 0.5 mM luciferin, 0.1 mM coenzyme A, 10 mM tricine, 1.35 mM magnesium sulfate, 15 mM DTT, pH 7.8) are added to the test cultures, which are shaken for approx. 1 minute and the luciferase activity is measured using a camera system. The EC50 values are determined, i.e., the concentrations at which 50% of the luciferase response is inhibited in the case of the A1 cell, and, respectively, 50% of the maximum stimulation with the corresponding substance is achieved in the case of the A2b and A2a cells. […] Pharmacol., 357, 1-9 (1998)).
(§3) Table 1 below lists the EC50 values of representative working examples for the receptor stimulation on adenosine A1, A2a and A2b receptor subtypes: […]

adenosine A2b receptor = target: T2, adenosine A2b receptor (Homo sapiens, UniProt P29275); assay: Indirect determination of adenosine agonism by way of gene expression (cAMP-dependent luciferase reporter), A2b cells; details: stably transfected CHO cells; 50% of the maximum stimulation of luciferase
T2 construct: expressed in transfected cells; host or cells: CHO (Chinese Hamster Ovary)
T2 sequence (P29275 1-332): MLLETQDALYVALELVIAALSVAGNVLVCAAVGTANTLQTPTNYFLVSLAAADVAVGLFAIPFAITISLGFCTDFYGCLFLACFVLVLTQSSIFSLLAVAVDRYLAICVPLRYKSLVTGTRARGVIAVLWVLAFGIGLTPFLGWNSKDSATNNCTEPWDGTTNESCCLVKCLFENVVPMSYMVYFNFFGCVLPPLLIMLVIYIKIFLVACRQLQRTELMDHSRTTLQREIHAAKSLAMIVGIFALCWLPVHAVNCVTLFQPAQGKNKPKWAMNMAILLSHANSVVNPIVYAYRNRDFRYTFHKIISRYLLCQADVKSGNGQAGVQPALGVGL
Source text: as §1, §2, §3

adenosine A2a receptor = target: T3, adenosine A2a receptor (Homo sapiens, UniProt P29274); assay: Indirect determination of adenosine agonism by way of gene expression (cAMP-dependent luciferase reporter), A2a cells; details: stably transfected CHO cells; 50% of the maximum stimulation of luciferase
T3 construct: expressed in transfected cells; host or cells: CHO (Chinese Hamster Ovary)
T3 sequence (P29274 whole entry): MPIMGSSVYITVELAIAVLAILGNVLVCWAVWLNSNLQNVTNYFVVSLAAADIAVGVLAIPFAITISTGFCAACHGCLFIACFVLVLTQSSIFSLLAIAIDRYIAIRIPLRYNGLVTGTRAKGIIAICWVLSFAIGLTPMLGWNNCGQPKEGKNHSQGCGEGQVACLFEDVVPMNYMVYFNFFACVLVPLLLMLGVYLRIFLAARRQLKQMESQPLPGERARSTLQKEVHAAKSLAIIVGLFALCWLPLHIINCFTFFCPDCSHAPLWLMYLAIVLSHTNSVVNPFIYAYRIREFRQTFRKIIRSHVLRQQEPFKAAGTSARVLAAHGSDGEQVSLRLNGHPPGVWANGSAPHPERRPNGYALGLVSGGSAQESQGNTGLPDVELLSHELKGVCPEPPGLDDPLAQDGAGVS
Source text: as §1, §2, §3

| SMILES | EC50 (adenosine A1 receptor) | EC50 (adenosine A2b receptor) | EC50 (adenosine A2a receptor) |
| --- | --- | --- | --- |
| N#Cc1c(SCc2csc(-c3ccc(Cl)cc3)n2)nc2[nH]nc(N)c2c1-c1ccc(OCCO)cc1 [Example 21, 3-Amino-6-({[2-(4-chlorophenyl)-1,3-thiazol-4-yl]methyl}sulfanyl)-4-[4-(2-hydroxyethoxy)phenyl]-1H-pyrazolo[3,4-b]pyridine-5-carbonitrile] | 10 nM | > 3000 nM | > 3000 nM |
| CNC(=O)c1c(N)c2c(-c3ccc(OCCO)cc3)c(C#N)c(SCc3csc(-c4ccc(Cl)cc4)n3)nc2n1C [Example 7] | 5 nM | 660 nM | 350 nM |
| COC(=O)c1c(N)c2c(-c3ccccc3)c(C#N)c(SCc3csc(-c4ccc(Cl)cc4)n3)nc2n1C [Example 3] | 5.3 nM | > 3000 nM | > 3000 nM |
| COC(=O)c1[nH]c2nc(SCc3csc(-c4ccc(Cl)cc4)n3)c(C#N)c(-c3ccc(OCCO)cc3)c2c1N [Example 17, Methyl 3-amino-6-({[2-(4-chlorophenyl)-1,3-thiazol-4-yl]methyl}thio)-5-cyano-4-[4-(2-hydroxyethoxy)phenyl]-1H-pyrrolo[2,3-b]pyridine-2-carboxylate] | 3.7 nM | > 3000 nM | 680 nM |
| Cn1c(C(N)=O)c(N)c2c(-c3ccc(OCCO)cc3)c(C#N)c(SCc3cccc(C(N)=O)c3)nc21 [Example 16, 3-Amino-6-[(3-carbamoylbenzyl)thio]-5-cyano-4-[4-(2-hydroxyethoxy)phenyl]-1-methyl-1H-pyrrolo[2,3-b]pyridine-2-carboxamide] | 4.9 nM | 760 nM | 330 nM |
| COC(=O)c1c(N)c2c(-c3ccc(OC[C@@H](O)CO)cc3)c(C#N)c(SCc3coc(-c4ccc(Cl)cc4)n3)nc2n1C [Example 11] | 14 nM | > 3000 nM | 600 nM |
| COC(=O)c1c(N)c2c(-c3ccc(OC[C@@H](O)CO)cc3)c(C#N)c(SCc3csc(-c4ccc(Cl)cc4)n3)nc2n1C [Example 12] | 11 nM | > 3000 nM | 1600 nM |

The remaining molecules from weak to strong by EC50 (adenosine A1 receptor), led by results:

| EC50 (adenosine A1 receptor) | EC50 (adenosine A2b receptor) | EC50 (adenosine A2a receptor) | SMILES |
| --- | --- | --- | --- |
| 3.7 nM | 1330 nM | 440 nM | COC(=O)c1c(N)c2c(-c3ccc(OCCO)cc3)c(C#N)c(SCc3cccc(C(N)=O)c3)nc2n1C [Example 15, Methyl 3-amino-6-[(3-carbamoylbenzyl)thio]-5-cyano-4-[4-(2-hydroxyethoxy)phenyl]-1-methyl-1H-pyrrolo[2,3-b]pyridine-2-carboxylate] |
| 3 nM | 320 nM | 73 nM | COC(=O)c1c(N)c2c(-c3ccc(OCCO)cc3)c(C#N)c(SCc3cccc(C#N)c3)nc2n1C [Example 4] |
| 1.7 nM | 1540 nM | 150 nM | COC(=O)Cn1c(C(=O)OC)c(N)c2c(-c3ccc(OCCO)cc3)c(C#N)c(SCc3csc(-c4ccc(Cl)cc4)n3)nc21 [Example 2] |
| 1.5 nM | 1000 nM | 200 nM | COC(=O)c1c(N)c2c(-c3ccc(OCCO)cc3)c(C#N)c(SCc3ccc(OC)nc3)nc2n1C [Example 5] |
| 0.8 nM | 550 nM | 170 nM | COC(=O)c1c(N)c2c(-c3ccc(OCCO)cc3)c(C#N)c(SCc3csc(-c4ccc(Cl)cc4)n3)nc2n1C [Example 1, Methyl 3-amino-6-({[2-(4-chlorophenyl)-1,3-thiazol-4-yl]methyl}thio)-5-cyano-4-[4-(2-hydroxyethoxy)phenyl]-1-methyl-1H-pyrrolo[2,3-b]pyridine-2-carboxylate] |
| 0.3 nM | > 3000 nM | 1120 nM | Cn1c(C(N)=O)c(N)c2c(-c3ccc(OCCO)cc3)c(C#N)c(SCc3csc(-c4ccc(Cl)cc4)n3)nc21 [Example 6] |
